Results published in patent US10710986B2, “PD-1/PD-L1 inhibitors” (Gilead Sciences, Inc., priority 2018, dated 2020).

Target: PD-1/PD-L1 (Homo sapiens (Human), UniProt Q9NZQ7)
Experiment: PD-1/PD-L1 biochemical protein-protein interaction assay (ALPHA)
Details: 0.3 nM His tagged PD-L1, 2.5 nM biotinylated Fc-PD-1, 60 minutes at 25° C., read-out: IC50 PD-L1-PD1

Sequence of PD-1/PD-L1 (Q9NZQ7 19-238): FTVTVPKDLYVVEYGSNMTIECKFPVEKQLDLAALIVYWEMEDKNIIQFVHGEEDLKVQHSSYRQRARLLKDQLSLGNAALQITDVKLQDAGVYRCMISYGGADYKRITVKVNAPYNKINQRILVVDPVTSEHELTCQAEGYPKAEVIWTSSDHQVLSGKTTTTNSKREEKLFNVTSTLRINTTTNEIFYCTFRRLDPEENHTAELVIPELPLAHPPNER

Row | SMILES | IC50
1 | COc1nc(-c2cccc(-c3cccc(-c4cnc(CN5CCCC5C(C)(C)O)c(OC)n4)c3Cl)c2Cl)cnc1CNC[C@@H]1CCC(=O)N1 (stereo partly shown) [compound 483] | 0.341 nM
2 | COc1nc(-c2cccc(-c3cccc(-c4cnc(CN5CC(C(C)(C)O)C5)c(OC)n4)c3Cl)c2Cl)cnc1CNC[C@@H]1CCC(=O)N1 [compound 484] | 0.122 nM
3 | COc1nc(-c2cccc(-c3cccc(-c4cnc(CN5C6COCC5C6)c(OC)n4)c3Cl)c2Cl)cnc1CNC[C@@H]1CCC(=O)N1 [compound 485] | 0.229 nM
4 | COc1nc(-c2cccc(-c3cccc(-c4cnc(CNCC5(O)CCC5)c(OC)n4)c3Cl)c2Cl)cnc1CNC[C@@H]1CCC(=O)N1 [compound 486] | 0.29 nM
5 | COc1nc(-c2cccc(-c3cccc(-c4cnc(CN5C[C@H](C)[C@@H](O)C5)c(OC)n4)c3Cl)c2Cl)cnc1CNC[C@@H]1CCC(=O)N1 [compound 487] | 0.123 nM
6 | CNc1nc(-c2cccc(-c3cccc(-c4cnc(CNC[C@@H]5CCC(=O)N5)c(OC)n4)c3Cl)c2Cl)cnc1CN1CC2(C1)CN(C(C)=O)C2 [compound 488] | 0.064 nM
7 | COc1nc(-c2cccc(-c3cccc(-c4cnc5c(CN6CC7(C6)CN(C(C)=O)C7)nn(C)c5n4)c3Cl)c2Cl)cnc1CN1CC2(C1)CN(C(C)=O)C2 [compound 489] | 0.332 nM
8 | CCn1nc(CN2CC3(C2)CN(C(C)=O)C3)c2ncc(-c3cccc(-c4cccc(-c5cnc(CN6CC7(C6)CN(C(C)=O)C7)c(OC)n5)c4Cl)c3Cl)nc21 [compound 490] | 0.565 nM
9 | COc1nc(-c2cccc(-c3cccc(-c4ccc5c(CN6CC7(C6)CN(C(C)=O)C7)cn(C)c5n4)c3Cl)c2Cl)cnc1CN1CC2(C1)CN(C(C)=O)C2 [compound 491] | 0.064 nM
10 | COc1nc(-c2cccc(-c3cccc(-c4ccc5c(CN6CC(O)C6)cn(C)c5n4)c3Cl)c2Cl)cnc1CN1CC(O)C1 [compound 492] | 0.092 nM
11 | COc1nc(-c2cccc(-c3cccc(-c4ccc5c(CN6CC7(CNC(=O)C7)C6)cn(C)c5n4)c3Cl)c2Cl)cnc1CN1CC2(CNC(=O)C2)C1 [compound 493] | 0.109 nM
12 | COc1nc(-c2cccc(-c3cccc(-c4ccc5c(CN6CC7(CCC(=O)N7)C6)cn(C)c5n4)c3Cl)c2Cl)cnc1CN1CC2(CCC(=O)N2)C1 [compound 494] | 0.139 nM
13 | COc1nc(-c2cccc(-c3cccc(-c4ccc5c(CNC[C@@H]6CCC(=O)N6)cn(C)c5n4)c3Cl)c2Cl)cnc1CNC[C@@H]1CCC(=O)N1 [compound 495] | 0.247 nM
14 | OC1CN(Cc2ncc(-c3cccc(-c4cccc(-c5cnc(CN6CC(O)C6)c(N6CCC6)n5)c4Cl)c3Cl)nc2N2CCC2)C1 [compound 496] | 0.386 nM
15 | COc1nc(-c2cccc(-c3cccc(-c4cnc(CN5CC6(CNC(=O)C6)C5)c(OC)n4)c3Cl)c2F)ccc1CN1CC2(CNC(=O)C2)C1 [compound 497] | 0.276 nM
16 | COc1nc(-c2cccc(-c3cccc(-c4cnc(CNC[C@@H]5CCC(=O)N5)c(OC)n4)c3Cl)c2F)ccc1CNC[C@@H]1CCC(=O)N1 [compound 498] | 0.169 nM
17 | COc1nc(-c2cccc(-c3cccc(-c4cnc(CN5CC[C@@H](C(C)(C)O)C5)c(OC)n4)c3Cl)c2Cl)cnc1CN1CC[C@@H](C(C)(C)O)C1 [compound 499] | 0.203 nM
18 | COc1nc(-c2cccc(-c3cccc(-c4cnc(CN5CC[C@H](C(C)(C)O)C5)c(OC)n4)c3Cl)c2Cl)cnc1CN1CC[C@H](C(C)(C)O)C1 [compound 500] | 0.232 nM
19 | COc1nc(-c2cccc(-c3cccc(-c4cnc(CN5CC[C@@H](C(C)(C)O)C5)c(OC)n4)c3Cl)c2Cl)cnc1CNC[C@@H]1CCC(=O)N1 [compound 501] | 0.087 nM
20 | COc1nc(-c2cccc(-c3cccc(-c4cnc(CN5CC[C@H](C(C)(C)O)C5)c(OC)n4)c3Cl)c2Cl)cnc1CNC[C@@H]1CCC(=O)N1 [compound 502] | 0.064 nM

Row | SMILES | IC50
21 | COc1nc(-c2cccc(-c3cccc(-c4cnc(CN5CCC(C(N)=O)CC5)c(OC)n4)c3Cl)c2Cl)cnc1CNC[C@@H]1CCC(=O)N1 [compound 508] | 0.084 nM
22 | COc1nc(-c2cccc(-c3cccc(-c4cnc(CNC5CCOCC5)c(OC)n4)c3Cl)c2Cl)cnc1CNC[C@@H]1CCC(=O)N1 [compound 509] | 0.106 nM
23 | COc1nc(-c2cccc(-c3cccc(-c4cnc(CN5CC[C@](C)(O)C5)c(OC)n4)c3Cl)c2Cl)cnc1CNC[C@@H]1CCC(=O)N1 [compound 510] | 0.192 nM
24 | COc1nc(-c2cccc(-c3cccc(-c4cnc(CN[C@H]5C[C@H](CO)C5)c(OC)n4)c3Cl)c2Cl)cnc1CNC[C@@H]1CCC(=O)N1 [compound 511] | 0.197 nM
25 | COc1nc(-c2cccc(-c3cccc(-c4cnc(CNCCC(=O)O)c(OC)n4)c3Cl)c2Cl)ccc1CNC[C@@H]1CCC(=O)N1 [compound 512] | 0.101 nM
26 | COc1nc(-c2cccc(-c3cccc(-c4cnc(CN5CC[C@H](C(=O)O)C5)c(OC)n4)c3Cl)c2Cl)ccc1CNC[C@@H]1CCC(=O)N1 [compound 513] | 0.064 nM
27 | COc1nc(-c2cccc(-c3cccc(-c4cnc(CN5CC[C@@H](C(=O)O)C5)c(OC)n4)c3Cl)c2Cl)ccc1CNC[C@@H]1CCC(=O)N1 [compound 514] | 0.09 nM
28 | COc1nc(-c2cccc(-c3cccc(-c4cnc(CN5CCC(c6cc[nH]n6)C5)c(OC)n4)c3Cl)c2Cl)cnc1CNC[C@@H]1CCC(=O)N1 (stereo partly shown) [compound 515] | 0.342 nM
29 | COc1nc(-c2cccc(-c3cccc(-c4cnc(CN5CC[C@H](O)[C@@H]5C)c(OC)n4)c3Cl)c2Cl)cnc1CNC[C@@H]1CCC(=O)N1 [compound 516] | 0.064 nM
30 | COc1nc(-c2cccc(-c3cccc(-c4cnc(CN5CC[C@H](C(N)=O)C5)c(OC)n4)c3Cl)c2Cl)cnc1CNC[C@@H]1CCC(=O)N1 [compound 517] | 0.106 nM
31 | COc1nc(-c2cccc(-c3cccc(-c4cnc(CNCCc5cnccn5)c(OC)n4)c3Cl)c2Cl)cnc1CNCCc1cnccn1 [compound 518] | 0.144 nM
32 | COc1nc(-c2cccc(-c3cccc(-c4cnc(CN5C[C@@H](O)[C@@H](O)C5)c(OC)n4)c3Cl)c2Cl)cnc1CN1C[C@@H](O)[C@@H](O)C1 [compound 519] | 0.277 nM
33 | COc1nc(-c2cccc(-c3cccc(-c4cnc(CNC[C@@H]5CCC(=O)N5)c(OC)n4)c3Cl)c2Cl)cnc1CNCCc1cncnc1 [compound 520] | 0.072 nM
34 | COc1nc(-c2cccc(-c3cccc(-c4cnc(CNC[C@@H]5CCC(=O)N5)c(OC)n4)c3Cl)c2Cl)cnc1CNCCc1cnccn1 [compound 521] | 0.071 nM
35 | COc1nc(-c2cccc(-c3cccc(-c4cnc(CN(CCO)CCO)c(OC)n4)c3Cl)c2Cl)cnc1CNC[C@@H]1CCC(=O)N1 [compound 522] | 0.064 nM
36 | COc1nc(-c2cccc(-c3cccc(-c4cnc(CN5CCC(O)(CO)C5)c(OC)n4)c3Cl)c2Cl)cnc1CNC[C@@H]1CCC(=O)N1 (stereo partly shown) [compound 523] | 0.181 nM
37 | COc1nc(-c2cccc(-c3cccc(-c4cnc(CN5C[C@@H](O)[C@@H](O)C5)c(OC)n4)c3Cl)c2Cl)cnc1CNC[C@@H]1CCC(=O)N1 [compound 524] | 0.115 nM
38 | COc1nc(-c2cccc(-c3cccc(-c4cnc(CN5CCC(N6CCNC6=O)C5)c(OC)n4)c3Cl)c2Cl)cnc1CN1CCC(N2CCNC2=O)C1 (stereo not shown) [compound 525] | 0.105 nM
39 | COc1nc(-c2cccc(-c3cccc(-c4cnc(CN5C[C@H](O)[C@@H](O)C5)c(OC)n4)c3Cl)c2Cl)cnc1CN1C[C@H](O)[C@@H](O)C1 [compound 526] | 0.168 nM
40 | COc1nc(-c2cccc(-c3cccc(-c4cnc(CN5CC(C(N)=O)C5)c(OC)n4)c3Cl)c2Cl)cnc1CN1CC(C(N)=O)C1 [compound 527] | 0.089 nM
